Values after ≈ are worked out from the molar mass of the structure shown. Active and inactive are the calls of the source. No cut-off for these calls is given here.
Columns and labels:
[1] = tested on: Trypanosoma brucei rhodesiense; experiment: Antitrypanosomal activity against Trypanosoma brucei rhodesiense STIB900 trypomastigotes incubated for 72 hrs by resazurin dye based fluorescence assay; format: functional, organism-based; settings: STIB900, 72 h
Leishmania donovani = experiment: Antileishmanial activity against Leishmania donovani MHOM/ET/67/L82 amastigotes measured after 72 hrs by alamar blue dye based fluorimetry analysis; format: functional, organism-based; settings: MHOM/ET/67/L82, 72 h
Plasmodium falciparum = experiment: Antiplasmodial activity against chloroquine and pyrimethamine resistant erythrocytic stage of Plasmodium falciparum K1 strain assessed as reduction in [3H]hypoxanthine incorporation measured after 48 hrs by liquid scintillation counting method; format: functional, organism-based
L6 = experiment: Cytotoxicity against rat L6 cells assessed as reduction in cell viability measured after 72 hrs by alamar blue dye based fluorimetry analysis; settings: L6, 72 h
Trypanosoma cruzi [2] = experiment: Antitrypanosomal activity against Trypanosoma cruzi Tulahuen C4 strain amastigotes infected in rat L6 cells measured after 96 hrs by inverted microscopy analysis; format: functional, organism-based; settings: Tulahuen C4, L6, 96 h
Trypanosoma cruzi [3] = experiment: Antitrypanosomal activity against Trypanosoma cruzi Tulahuen strain trypomastigotes infected in rat H9c2 cells incubated for 72 hrs by DRAQ5 DNA dye based imaging analysis; format: functional, organism-based; settings: H9c2, 72 h
[4] = tested on: Trypanosoma brucei brucei; experiment: Antitrypanosomal activity against Trypanosoma brucei brucei Lister 427 strain blood stream forms incubated for 48 hrs by resazurin dye based fluorescence assay; format: functional, organism-based; settings: Lister 427, 48 h
[5] = Metabolic stability in human liver microsomes assessed as degradation half-life measured after 60 mins in presence of NADPH generating system by LC-MS analysis; format: ADME, Microsome; settings: read-out: T50
[6] = Intrinsic clearance in mouse liver microsomes assessed per mg protein measured after 60 mins in presence of NADPH generating system by LC-MS analysis; format: ADME, Microsome; settings: read-out: CLH
[7] = Selectivity index, ratio of IC50 for cytotoxicity against rat H9c2 cells assessed as reduction in cell viability to IC50 for antitrypanosomal against Trypanosoma cruzi Tulahuen trypomastigotes infected in rat H9c2 cells; format: toxicity, cell-based; settings: read-out: Ratio IC50
[8] = Selectivity index, ratio of IC50 for cytotoxicity against human HEK293 cells assessed as reduction in cell viability to IC50 for antitrypanosomal activity against Trypanosoma brucei brucei Lister 427 blood stream form; format: toxicity, cell-based; settings: read-out: Ratio IC50
[9] = Metabolic stability in mouse liver microsomes assessed as degradation half-life measured after 60 mins in presence of NADPH generating system by LC-MS analysis; format: ADME, Microsome; settings: read-out: T50
[10] = Intrinsic clearance in human liver microsomes assessed per mg protein measured after 60 mins in presence of NADPH generating system by LC-MS analysis; format: ADME, Microsome; settings: read-out: CLH
[11] = Partition coefficient, log D of compound at pH 7.4 by HPLC; format: physicochemical; settings: octanol/water
[12] = Kinetic solubility of compound at pH 2 by nephelometry; format: physicochemical; settings: buffer, read-out: Kinetic_solubility
[13] = Protein binding in human plasma by HPLC-MS analysis; format: ADME, cell-free; settings: read-out: PPB (converted)
[14] = Kinetic solubility of compound at pH 6.5 phosphate buffer by nephelometry; format: physicochemical; settings: read-out: Kinetic_solubility
[15] = Metabolic stability in human liver microsomes assessed as half-life measured after 60 mins in presence of NADPH generating system by LC-MS analysis; format: ADME, Microsome
Vero = experiment: Cytotoxicity against African green monkey Vero cells assessed as reduction in cell viability; format: cell-based; settings: chlorocebus sabaeus
Trypanosoma cruzi [16] = experiment: Antitrypanosomal activity against Trypanosoma cruzi infected in vero cells assessed as parasite growth inhibition incubated from 24 to 96 hrs by time kill assay; format: functional, organism-based
[17] = Drug metabolism in human liver microsomes assessed as N-(2-(4-(2,4-difluorophenyl)thiazol-2-yl)ethyl)piperidine-1-carboxamide metabolite formation in presence of NADPH and UDPGA measured after 60 mins by LC-MS analysis; format: ADME, Microsome; settings: 1 h
[18] = Drug metabolism in human liver microsomes assessed as 2-(2-phenylthiazol-4-yl)-ethanol metabolite formation in presence of NADPH and UDPGA measured after 60 mins by LC-MS analysis; format: ADME, Microsome; settings: 1 h
[19] = Drug metabolism in human liver microsomes assessed as hydroxylation by measuring 3-fluoro-N-(2-hydroxy-2-(2-phenylthiazol-4-yl)ethyl)benzamide formation in presence of NADPH measured after 60 mins by LC-MS analysis; format: ADME, Microsome; settings: 1 h
Trypanosoma cruzi [20] = experiment: Inhibition of Trypanosoma cruzi Tulahuen C4 CYP51 expressed in Escherichia coli JM109 using BOMCC as substrate in presence of NADPH by fluorescence assay
[21] = Drug metabolism in human liver microsomes assessed as secondary hydroxylation by measuring N-(2-(4-(2,4-difluorophenyl)thiazol-2-yl)ethyl)piperidine-1-carboxamide metabolite formation in presence of NADPH measured after 60 mins by LC-MS analysis; format: ADME, Microsome; settings: 1 h
[22] = Drug metabolism in human liver microsomes assessed as hydroxylation by measuring 3-fluoro-N-(2-(2-(4-hydroxyphenyl)thiazol-4-yl)ethyl)benzamide formation in presence of NADPH measured after 60 mins by LC-MS analysis; format: ADME, Microsome; settings: 1 h
[23] = Drug metabolism in human liver microsomes assessed as oxidative dealkylation by measuring 2-(2-phenylthiazol-4-yl)-ethanol formation in presence of NADPH measured after 60 mins by LC-MS analysis; format: ADME, Microsome; settings: 1 h
Trypanosoma cruzi [24] = experiment: Antitrypanosomal activity against Trypanosoma cruzi infected in vero cells assessed as reduction in parasite growth inhibition incubated for 96 hrs by time kill assay relative to nifurtimox; format: functional
[25] = Metabolic stability in human liver microsome assessed as compound degradation measured over 60 mins in absence of cofactor by LC-MS analysis; format: ADME; settings: liver microsomes, read-out: Drug degradation

Row | Structure (SMILES) | IC50 (Trypanosoma cruzi [3]) | IC50 [4] | half-life [5] | microsomal CLint [6] | selectivity ratio [7] | selectivity ratio [8] | half-life [9] | microsomal CLint [10] | also measured
1 | CC(C)(C)C(=O)NCCc1csc(-c2cccc(F)c2)n1 |  |  |  |  |  |  |  |  | IC50 [1]: 1500 nM; IC50 (Leishmania donovani): 46 µM; IC50 (Plasmodium falciparum): 35 µM; IC50 (L6): 62 µM; IC50 (Trypanosoma cruzi [2]): 2300 nM
2 | O=C(NCCc1csc(-c2ccc(F)cc2)n1)N1CCCCC1 | 30 nM | 24 nM | 11 min | > 1600 µL/min/mg | > 1580 | 431 | < 2 min | 160 µL/min/mg | 
3 | O=C(NCCc1csc(-c2ccccc2)n1)N1CCCCC1 | 39 nM |  | 7 min |  |  |  |  | 244 µL/min/mg | logD [11]: 3.2; solubility kinetic [12]: 50 µg/mL (≈ 159 µM); fraction unbound [13]: 0.1; solubility kinetic [14]: 25 µg/mL (≈ 79.3 µM)
4 | O=C(NCCc1csc(-c2ccccc2F)n1)N1CCCCC1 | 10 nM | 16 nM | 4 min | > 1600 µL/min/mg | > 3980 | 650 | < 2 min | 439 µL/min/mg | 
5 | O=C(NCCc1csc(-c2cccc(F)c2)n1)N1CCCCC1 |  | 26 nM | 4 min | > 1600 µL/min/mg |  | 398 | < 2 min | 445 µL/min/mg | 
6 | CC(C)OC(=O)NCCc1csc(-c2ccc(F)cc2F)n1 | 130 nM |  |  |  | > 398 |  |  | 135 µL/min/mg | half-life [15]: 10 min
7 | O=C(NCCc1csc(-c2ccccc2)n1)c1cccc(F)c1 | 500 nM |  | 4 min |  |  |  |  | 484 µL/min/mg | Activity (Vero): 17 µM; IC50 (Trypanosoma cruzi [16]): 400 nM; logD [11]: 3.6; Drug metabolism [17]: Metabolite_Detected; Drug metabolism [18]: Metabolite_Detected; Drug metabolism [19]: Metabolite_Detected; inhibition (Trypanosoma cruzi [20]): inactive; solubility kinetic [12]: 6 µg/mL (≈ 18.4 µM); fraction unbound [13]: 0.04; Drug metabolism [21]: Metabolite_Detected; IC50 (Leishmania donovani): 10 µM; Drug metabolism [22]: Metabolite_Detected; IC50 (Plasmodium falciparum): 41 µM; Drug metabolism [23]: Metabolite_Detected; Imax (Trypanosoma cruzi [24]): 106%; IC50 (L6): 51 µM; metabolised at 1 h [25]: 14%; IC50 (Trypanosoma cruzi [2]): 200 nM
